Results published in US12539292B2, “BRM targeting compounds and associated methods of use” (Arvinas Operations, Inc., priority 2018, dated 2026).
Like-named read-outs stand apart in the source and are kept apart here.

Target: T1, BRM (Homo sapiens, UniProt P51531)
T1 construct: In-Cell Western Screen of BRM Degradation in SW1573 Cells; endogenous in cells; host or cells: SW1573
Test: In-cell Western screen of BRM degradation in SW1573 cells (Dmax and DC50)
Assay type: cell-based
Method in brief: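 Adherent SW1573 cultures exposed to test compounds for 18-20 h were processed for in-cell Western after PFA fixation and detergent permeabilization. BRM degradation was reported as Dmax and DC50.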

[1] = BRM degradation, SW1573 cells, Table 2D, read-out: **Dmax (%) (% degraded)
[2] = BRM degradation, SW1573 cells, Table 2D, read-out: *DC50
[3] = BRM degradation, SW1573 cells, read-out: DC50
[4] = BRM degradation, SW1573 cells, tested at the top concentration of between 0.3 and 10 μM, read-out: Dmax (%) (% degraded)
[5] = BRM degradation, SW1573 cells, when tested at the top concentration of between 0.3 and 10 μM, read-out: Dmax (%) (% degraded)
[6] = SW1573, % degraded, when tested at the top concentration of between 0.3 and 10 μM, read-out: BRM Dmax (%)

T1 sequence (P51531 whole entry): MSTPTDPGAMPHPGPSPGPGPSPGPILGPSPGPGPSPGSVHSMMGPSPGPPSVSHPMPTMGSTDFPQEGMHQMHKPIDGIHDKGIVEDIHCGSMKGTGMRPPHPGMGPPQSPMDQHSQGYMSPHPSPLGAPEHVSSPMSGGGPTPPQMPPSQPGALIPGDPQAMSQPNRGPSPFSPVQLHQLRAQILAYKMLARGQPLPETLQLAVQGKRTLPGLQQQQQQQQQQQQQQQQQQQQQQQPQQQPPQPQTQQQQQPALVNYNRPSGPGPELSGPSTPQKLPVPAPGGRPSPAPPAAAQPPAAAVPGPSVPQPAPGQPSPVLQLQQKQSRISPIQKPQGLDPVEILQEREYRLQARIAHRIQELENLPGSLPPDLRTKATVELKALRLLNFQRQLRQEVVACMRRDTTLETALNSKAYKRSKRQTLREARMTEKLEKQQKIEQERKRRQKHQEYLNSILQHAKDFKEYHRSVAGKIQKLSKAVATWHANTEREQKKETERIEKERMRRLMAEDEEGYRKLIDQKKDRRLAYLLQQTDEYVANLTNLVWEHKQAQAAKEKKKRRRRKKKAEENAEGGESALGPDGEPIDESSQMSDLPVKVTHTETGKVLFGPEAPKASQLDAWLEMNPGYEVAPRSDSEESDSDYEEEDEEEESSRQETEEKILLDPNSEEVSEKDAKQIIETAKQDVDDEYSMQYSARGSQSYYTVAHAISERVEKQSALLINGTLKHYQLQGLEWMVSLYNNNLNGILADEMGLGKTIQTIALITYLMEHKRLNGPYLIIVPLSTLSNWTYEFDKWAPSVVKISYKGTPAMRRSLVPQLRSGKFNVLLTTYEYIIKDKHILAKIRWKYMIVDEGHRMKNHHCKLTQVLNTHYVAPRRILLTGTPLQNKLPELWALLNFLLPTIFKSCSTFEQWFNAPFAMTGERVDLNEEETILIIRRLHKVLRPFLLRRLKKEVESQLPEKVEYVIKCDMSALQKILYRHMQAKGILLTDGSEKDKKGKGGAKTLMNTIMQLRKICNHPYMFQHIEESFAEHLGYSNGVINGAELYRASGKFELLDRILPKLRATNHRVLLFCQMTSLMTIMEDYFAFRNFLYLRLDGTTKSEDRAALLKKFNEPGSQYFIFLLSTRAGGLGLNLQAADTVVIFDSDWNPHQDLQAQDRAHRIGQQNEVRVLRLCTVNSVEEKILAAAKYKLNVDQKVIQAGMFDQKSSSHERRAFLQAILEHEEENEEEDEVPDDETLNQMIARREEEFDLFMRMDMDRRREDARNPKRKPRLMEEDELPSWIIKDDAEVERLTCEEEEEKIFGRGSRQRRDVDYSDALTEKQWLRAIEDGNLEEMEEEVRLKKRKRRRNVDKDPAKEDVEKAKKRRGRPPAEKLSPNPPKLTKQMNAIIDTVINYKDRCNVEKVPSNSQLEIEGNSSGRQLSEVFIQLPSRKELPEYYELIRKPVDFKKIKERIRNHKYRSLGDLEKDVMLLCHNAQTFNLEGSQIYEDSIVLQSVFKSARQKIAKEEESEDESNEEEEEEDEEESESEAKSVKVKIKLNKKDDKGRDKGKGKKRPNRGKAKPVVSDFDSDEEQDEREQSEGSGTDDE

How did the Dmax [1] turn out when `CC(C)[C@@H](C(=O)N1C[C@H](O)C[C@H]1C(=O)N[C@@H](C)c1ccc(-n2ccnc2N)cc1)c1cc(N2CCC(CN3CCC(O[C@H]4C[C@H](Oc5cc(N6C7CCC6CN(c6cc(-c8ccccc8O)nnc6N)C7)ccn5)C4)CC3)CC2)no1` [compound 621, (2S,4R)-N-((S)-1-(4-(2-amino-1H-imidazol-1-yl)phenyl)ethyl)-1-((2R)-2-(3-(4-((4-((1r,3r)-3-((4-(3-(3-amino-6-(2-hydroxyphenyl)pyridazin-4-yl)-3,8-diazabicyclo[3.2.1]octan-8-yl)pyridin-2-yl)oxy)cyclobutoxy)piperidin-1-yl)methyl)piperidin-1-yl)isoxazol-5-yl)-3-methylbutanoyl)-4-hydroxypyrrolidine-2-carboxamide] was run?
The Dmax was over 75%.

What about the DC50 [2] of the same molecule?
Its DC50 is under 2.5 nM.

`Cc1ncsc1-c1ccc([C@H](C)NC(=O)[C@@H]2C[C@@H](O)CN2C(=O)[C@@H](c2cc(OCCN3CCC(O[C@H]4C[C@H](C#CCn5cc(-c6cc(-c7ccccc7O)nnc6N)cn5)C4)CC3)no2)C(C)C)cc1` [compound 238, (2S,4R)-1-((R)-2-(3-(2-(4-((1r,3R)-3-(3-(4-(3-amino-6-(2-hydroxyphenyl)pyridazin-4-yl)-1H-pyrazol-1-yl)prop-1-yn-1-yl)cyclobutoxy)piperidin-1-yl)ethoxy)isoxazol-5-yl)-3-methylbutanoyl)-4-hydroxy-N-((S)-1-(4-(4-methylthiazol-5-yl)phenyl)ethyl)pyrrolidine-2-carboxamide] was tested. Which DC50 [3] did it give?
The DC50 was under 2.5 nM.

And the Dmax [4]?
The Dmax was over 75%.

`Cc1ncsc1-c1ccc(CNC(=O)[C@@H]2C[C@@H](O)CN2C(=O)[C@@H](NC(=O)COCCOCCOCCOCCOCCn2cc(-c3cc(-c4ccccc4O)nnc3N)cn2)C(C)(C)C)cc1` [compound 4, (2S,4R)-1-((S)-20-(4-(3-amino-6-(2-hydroxyphenyl)pyridazin-4-yl)-1H-pyrazol-1-yl)-2-(tert-butyl)-4-oxo-6,9,12,15,18-pentaoxa-3-azaicosanoyl)-4-hydroxy-N-(4-(4-methylthiazol-5-yl)benzyl)pyrrolidine-2-carboxamide] was tested. Which DC50 [3] did it give?
The DC50 was over 30 nM.

And the Dmax [5]?
Its Dmax is over 75%.

`Cc1ncoc1-c1ccc([C@H](C)NC(=O)[C@@H]2C[C@@H](O)CN2C(=O)[C@@H](c2cc(OCCN3CCC(O[C@H]4C[C@H](Oc5cc(N6C7CCC6CN(c6cc(-c8ccccc8O)nnc6N)C7)ccn5)C4)CC3)no2)C(C)C)cn1` [compound 230, (2S,4R)-1-((2R)-2-(3-(2-(4-((1r,3R)-3-((4-(3-(3-amino-6-(2-hydroxyphenyl)pyridazin-4-yl)-3,8-diazabicyclo[3.2.1]octan-8-yl)pyridin-2-yl)oxy)cyclobutoxy)piperidin-1-yl)ethoxy)isoxazol-5-yl)-3-methylbutanoyl)-4-hydroxy-N-((S)-1-(6-(4-methyloxazol-5-yl)pyridin-3-yl)ethyl)pyrrolidine-2-carboxamide] was tested. Which DC50 [3] did it give?
The DC50 was under 2.5 nM.

And the Dmax [4]?
The Dmax was over 75%.

Which results are given for `Cc1cnn(C)c1-c1ccc([C@H](C)NC(=O)[C@@H]2C[C@@H](O)CN2C(=O)[C@H](c2cc(OCCN3CCC(O[C@H]4C[C@H](Oc5cc(N6C7CCC6CN(c6cc(-c8ccccc8O)nnc6N)C7)ccn5)C4)CC3)no2)C(C)C)cc1` [compound 294, (2S,4R)-1-((2S)-2-(3-(2-(4-((1r,3S)-3-((4-(3-(3-amino-6-(2-hydroxyphenyl)pyridazin-4-yl)-3,8-diazabicyclo[3.2.1]octan-8-yl)pyridin-2-yl)oxy)cyclobutoxy)piperidin-1-yl)ethoxy)isoxazol-5-yl)-3-methylbutanoyl)-N-((S)-1-(4-(1,4-dimethyl-1H-pyrazol-5-yl)phenyl)ethyl)-4-hydroxypyrrolidine-2-carboxamide]?
DC50 [3]: 2.5 to 10 nM; Dmax [4]: > 75%

Which results are given for `CC(C)[C@@H](C(=O)N1C[C@H](O)C[C@H]1C(=O)N[C@@H](C)c1ccc(-c2scnc2N)cc1)c1cc(OCCN2CCC(O[C@H]3C[C@H](Oc4cc(N5C6CCC5CN(c5cc(-c7ccccc7O)nnc5N)C6)ccn4)C3)CC2)no1` [compound 416, (2S,4R)-1-((2R)-2-(3-(2-(4-((1r,3R)-3-((4-(3-(3-amino-6-(2-hydroxyphenyl)pyridazin-4-yl)-3,8-diazabicyclo[3.2.1]octan-8-yl)pyridin-2-yl)oxy)cyclobutoxy)piperidin-1-yl)ethoxy)isoxazol-5-yl)-3-methylbutanoyl)-N-((S)-1-(4-(4-aminothiazol-5-yl)phenyl)ethyl)-4-hydroxypyrrolidine-2-carboxamide]?
Dmax [6]: > 75%; DC50 (degradation of BRM, read-out: BRM DC50): < 2.5 nM

`Cc1cc([C@H](C(=O)N2C[C@H](O)C[C@H]2C(=O)N[C@@H](C)c2ccc(-c3scnc3C)cc2)[C@H](C)COCCOc2cc(N3C4CCC3CN(c3cc(-c5ccccc5O)nnc3N)C4)ccn2)on1` [compound 514, (2S,4R)-1-((2R,3S)-4-(2-((4-(3-(3-amino-6-(2-hydroxyphenyl)pyridazin-4-yl)-3,8-diazabicyclo[3.2.1]octan-8-yl)pyridin-2-yl)oxy)ethoxy)-3-methyl-2-(3-methylisoxazol-5-yl)butanoyl)-4-hydroxy-N-((S)-1-(4-(4-methylthiazol-5-yl)phenyl)ethyl)pyrrolidine-2-carboxamide] was tested. Which DC50 (BRM degradation, read-out: BRM DC50) did it give?
The DC50 was over 30 nM.

Which DC50 [3] does the source give for `Cc1ncsc1-c1ccc(CNC(=O)[C@@H]2C[C@@H](O)CN2C(=O)[C@H](c2cc(OCCOCCOCCOCCOc3cc(N4C5CCC4CN(c4cc(-c6ccccc6O)nnc4N)C5)ccn3)no2)C(C)C)cc1` [compound 29, (2S,4R)-1-[(2S)-2-(3-[[1-(4-[3-[3-amino-6-(2-hydroxyphenyl)pyridazin-4-yl]-3,8-diazabicyclo[3.2.1]octan-8-yl]pyridin-2-yl)-1,4,7,10-tetraoxadodecan-12-yl]oxy]-1,2-oxazol-5-yl)-3-methylbutanoyl]-4-hydroxy-N-[[4-(4-methyl-1,3-thiazol-5-yl)phenyl]methyl]pyrrolidine-2-carboxamide] here?
The DC50 was 10 to 30 nM.

And the Dmax [5]?
Its Dmax is over 75%.

Which results are given for `Cc1ncsc1-c1ccc([C@H](C)NC(=O)[C@@H]2C[C@@H](O)CN2C(=O)[C@@H](c2cc(OC/C=C/c3ncc(O[C@H]4C[C@H](Oc5cc(N6C7CCC6CN(c6cc(-c8ccccc8O)nnc6N)C7)ccn5)C4)cn3)no2)C(C)C)cc1` [compound 392, (2S,4R)-1-((2R)-2-(3-(((E)-3-(5-((1r,3R)-3-((4-(3-(3-amino-6-(2-hydroxyphenyl)pyridazin-4-yl)-3,8-diazabicyclo[3.2.1]octan-8-yl)pyridin-2-yl)oxy)cyclobutoxy)pyrimidin-2-yl)allyl)oxy)isoxazol-5-yl)-3-methylbutanoyl)-4-hydroxy-N-((S)-1-(4-(4-methylthiazol-5-yl)phenyl)ethyl)pyrrolidine-2-carboxamide]?
Dmax [6]: > 75%; DC50 (target protein degradation, read-out: BRM DC50): < 2.5 nM

`Cc1ncsc1-c1ccc([C@H](C)NC(=O)[C@@H]2C[C@@H](O)CN2C(=O)[C@H](c2cc(OCCCc3ccc(C(C)n4cc(-c5cc(-c6ccccc6O)nnc5N)cn4)cc3)no2)C(C)C)cc1` (stereo partly drawn) [compound 59, (2S,4R)-1-((2S)-2-(3-(3-(4-(1-(4-(3-amino-6-(2-hydroxyphenyl)pyridazin-4-yl)-1H-pyrazol-1-yl)ethyl)phenyl)propoxy)isoxazol-5-yl)-3-methylbutanoyl)-4-hydroxy-N-((S)-1-(4-(4-methylthiazol-5-yl)phenyl)ethyl)pyrrolidine-2-carboxamide] was tested. Which DC50 [3] did it give?
Its DC50 is over 30 nM.

What about the Dmax [5] of the same molecule?
Its Dmax is over 75%.

With `Cc1ncsc1-c1ccc([C@H](C)NC(=O)[C@@H]2C[C@@H](O)CN2C(=O)[C@@H](c2cc(N3CCN(C(C)(C)C4CCN(C[C@H]5C[C@H](Oc6cc(N7C8CCC7CN(c7cc(-c9ccccc9O)nnc7N)C8)ccn6)C5)CC4)CC3)no2)C(C)C)cc1` [compound 715, (2S,4R)-1-((2R)-2-(3-(4-(2-(1-(((1r,3r)-3-((4-(3-(3-amino-6-(2-hydroxyphenyl)pyridazin-4-yl)-3,8-diazabicyclo[3.2.1]octan-8-yl)pyridin-2-yl)oxy)cyclobutyl)methyl)piperidin-4-yl)propan-2-yl)piperazin-1-yl)isoxazol-5-yl)-3-methylbutanoyl)-4-hydroxy-N-((S)-1-(4-(4-methylthiazol-5-yl)phenyl)ethyl)pyrrolidine-2-carboxamide] as the molecule, how does the DC50 [3] read?
The DC50 was under 2.5 nM.

And the Dmax (BRM degradation, SW1573 cells, read-out: Dmax (% degraded))?
The Dmax was over 75%.

For `Cc1ncsc1-c1ccc([C@H](C)NC(=O)[C@@H]2C[C@@H](O)CN2C(=O)[C@@H](c2cc(OCCOc3ccc(C(C)n4cc(-c5cc(-c6ccccc6O)nnc5N)cn4)cn3)no2)C(C)C)cc1` (stereo partly drawn) [compound 82, (2S,4R)-1-((2R)-2-(3-(2-((5-(1-(4-(3-amino-6-(2-hydroxyphenyl)pyridazin-4-yl)-1H-pyrazol-1-yl)ethyl)pyridin-2-yl)oxy)ethoxy)isoxazol-5-yl)-3-methylbutanoyl)-4-hydroxy-N-((S)-1-(4-(4-methylthiazol-5-yl)phenyl)ethyl)pyrrolidine-2-carboxamide], which DC50 [3] is on record?
Its DC50 is under 2.5 nM.

And the Dmax [5]?
Its Dmax is over 75%.

What does the source list for `Cc1ncsc1-c1ccc([C@H](C)NC(=O)[C@@H]2C[C@@H](O)CN2C(=O)[C@@H](c2cc(OCC[C@@H]3CCN(C[C@H]4C[C@H](Oc5cc(N6C7CCC6CN(c6cc(-c8ccccc8O)nnc6N)C7)ccn5)C4)C[C@@H]3C)no2)C(C)C)cc1` (racemic) [compound 544, (2S,4R)-1-((2R)-2-(3-(2-((3R,4S)-1-(((1r,3R)-3-((4-(3-(3-amino-6-(2-hydroxyphenyl)pyridazin-4-yl)-3,8-diazabicyclo[3.2.1]octan-8-yl)pyridin-2-yl)oxy)cyclobutyl)methyl)-3-methylpiperidin-4-yl)ethoxy)isoxazol-5-yl)-3-methylbutanoyl)-4-hydroxy-N-((S)-1-(4-(4-methylthiazol-5-yl)phenyl)ethyl)pyrrolidine-2-carboxamide]?
Dmax [1]: > 75%; DC50 [2]: < 2.5 nM
